The values below are quoted from earlier work in article PMC9689602, “Evaluation of ^68Ga-Radiolabeled Peptides for HER2 PET Imaging” (Diagnostics, 2022).

The subject of one series is mice. The following applies: up to 1 g/kg intravenous injection. The text has this:
One drawback for peptides is their susceptibility to degradation from proteases present within organisms. […] Phosphoramidon can be used as an aid to protect peptides from quick degradation when evaluating our peptides in vivo. […] We are using phosphoramidon as a to ...

The target of a further series is HER2. As to the method: Peptide imaging agents allow for quicker injection to imaging times along with a potential decrease in dose to the patient by using a shorter-lived radioisotope. Radiolabeled peptides are currently used in the clinic for the diagnosis of several cancer types. A widely used example is [^68Ga]DOTATATE (NETSPOT®) which was given FDA approval in 2016 and is used for imaging somatostatin receptor type 2 on neuroendocrine cancer with patient imaging 40 to 90 min after intravenous administration. Several HER2-targeting peptides have been reported which could have the potential to be ...

Like-named read-outs stand apart in the source and are kept apart here.

`CC(C)C[C@H](NP(=O)(O)O[C@@H]1O[C@@H](C)[C@H](O)[C@@H](O)[C@H]1O)C(=O)N[C@@H](Cc1c[nH]c2ccccc12)C(=O)O` [phosphoramidon, Phosphoramidon]: the toxicity in mice entry in the series on mice was “low toxicity and no death”.

Consider DTFPYLGWWNPNEYRY, for which the Kd on HER2 (highest affinity in OBOC library, read-out: affinity (Kd)) is 0.0186 µM.

As for HER2 (from UniProt P04626), the Kd with KCCYSL peptide is 30 µM.

With KCCYSL, the Kd at HER2 (binding to HER2, read-out: equilibrium dissociation constant) was 30 µM.
